# Values of other authors, collected in paper PMC7657096 (Medical Mycology, 2020).
# Several values for one entry are separate records, joined by “and”; a condition that tells them apart may be missing. Equal entries are not always repeated. Where two headings read alike, the source gives them in different places.
# Key:
# onychomycosis [1] = conditions: topical, applied for 52 weeks; two values
# onychomycosis [2] = conditions: after 48 weeks following daily application for 48 weeks; two values
# onychomycosis [3] = system: onychomycosis
# onychomycosis [4] = conditions: after 10 months following weekly application for 9 months
# onychomycosis [5] = conditions: topical solution applied daily for either 24 or 48 weeks
# onychomycosis [6] = conditions: after 12 or 24 weeks of oral terbinafine treatment
compound,measurement,setting,value
C=C1CCN([C@H](C)[C@](O)(Cn2cncn2)c2ccc(F)cc2F)CC1 [efinaconazole],mycological cure,onychomycosis [1],53.4% and 55.2%
Cc1cc(C2CCCCC2)n(O)c(=O)c1 [ciclopirox],mycological cure (negative culture and negative microscopy),onychomycosis [2],29% and 36%
OB1OCc2cc(F)ccc21 [tavaborole],mycological cure,"onychomycosis [3]; topical, applied for 52 weeks",31.1%
same,negative culture,"onychomycosis [3]; two phase III studies, daily topical treatment for 48 weeks, ref (57)",87.0% and 85.4%
CCC(C)(C)c1ccc(CC(C)CN2C[C@@H](C)O[C@@H](C)C2)cc1 (stereo partly shown) [amorolfine],mycological cure (negative culture and negative microscopy),onychomycosis [4],8%
CN(C/C=C/C#CC(C)(C)C)Cc1cccc2ccccc12 [terbinafine],mycological cure,onychomycosis [5],12.7–18.8%
same,trial participants with negative culture after 24 weeks (168 days),onychomycosis [6],approximately 80%
